Results from patent US9730940B2, “Purine inhibitors of human phosphatidylinositol 3-kinase delta” (priority 2012, dated 2017).

Experiments:
PI3K-alpha = PI3K-alpha (Homo sapiens (Human), UniProt P42336); assay: HTRF PI3K biochemical assay, alpha isoform; conditions: ratio PI3K-alpha IC50 value/PI3K-delta IC50 value
PI3K-delta = PI3K-delta (Homo sapiens (Human), UniProt O00329); assay: biochemical; conditions: PI3Kdelta IC50, HTRF biochemical assay; compound form screened given
Description: HTRF PI3K Biochemical Assay to Measure Intrinsic Potency of Compound Inhibitors
The PI3-Kinase biochemical assays were developed to measure the intrinsic potency and compound dependent inhibition of the alpha, beta, delta, and gamma PI3K isoform enzymes. This assay was developed and further optimized from a kit produced by Upstate (Millipore catalog #33-047) and has been configured for HTS and SAR screening. Briefly, this procedure exploits the exquisite specificity and high affinity binding of enzyme reaction substrate phosphatidyl(3,4,5)triphosphate (PIP3) to the GRP1 pleckstrin homology (PH) domain to generate the signal. In the absence of PIP3, an HTRF (Homogeneous Time-Resolved Fluorescence energy transfer) complex is formed consisting of europium (Eu)-labeled anti-GST, GST tagged GRP1-PH domain, biotin-PIP3 and streptavidin conjugated APC. The native PIP3 produced by PI3-Kinase activity disrupts in a competitive manner the biotin-PIP3 from the PH domain, resulting in the loss of energy transfer (HTRF complex) and a decrease in the signal. The format of this assay is the same for all 4 isoforms of PI3K; the differences lie in the concentration of enzyme used to achieve robust assay window. The alpha, beta, and delta assays are run at 0.5, 1, and 0.3 nM enzymes and the gamma assay is run at 5 nM enzyme. The ATP concentration is 100 uM in the alpha, beta, and delta assays and 50 uM ATP in the gamma assay. All reactions are run at 5 uM PIP2.
Compounds are serially diluted (3-fold in 100% DMSO) across a 384-well polypropylene source plated from column 3 to column 12 and column 13 to column 22, to yield 10 concentration dose response for each test compound. Columns 1, 2, 23 and 24 contain either only DMSO or pharmacological known control inhibitor.
The PI3-Kinase biochemical assay was optimized using the HTRF kit provided by Upstate (Millipore). The assay kit contains six reagents: 1) 4× Reaction Buffer; 2) native PIP2 (substrate); 3) Stop (EDTA); 4) Detection Mix A (Streptavidin-APC); 5) Detection Mix B (Eu-labeled Anti-GST plus GST-tagged PH-domain); 6) Detection Mix C.
PI3Kinase Reaction Buffer is prepared by dilution the stock 1:4 with de-ionized water. […] Enzyme addition and compound pre-incubation are initiated by the addition of 1.25 ul of PI3K (at twice its final concentration) in the 1× reaction buffer to all wells using a BioRaptor. Plates are incubated at room temperature for 15 minutes. Reactions are initiated by addition of 1.25 ul of 2× substrate solution (PIP2 and ATP in 1× reaction buffer) using BioRaptor. Plates are incubated in humidified chamber at room temperature for one hour. Reactions are quenched by addition of 0.625 uL of stop solution to all wells using the BioRaptor. The quenched reactions are then processed to detect product formation by adding 0.625 uL of Detection Solution to all wells using the BioRaptor (Detection mix C, Detection Mix A, and Detection Mix B combined together in an 18:1:1 ratio prepared 2 hours prior to use).
The loss of the HTRF signal is due to the displacement of biotinylated-PIP3 from the PH domain by the PI3K-dependent conversion of PIP2 to PIP3. […] All data were calculated using the ratio of acceptor (APC) to donor (Europium) fluorescence in each well of the assay plate. […] An IC50 was then calculated fitting the % inhibition data to the equation: % inhibition=min+(Max−min)/1+([inhibitor]/IC50)^n) where min is the % inhibition […], max is the signal in DMSO control, and n is the Hill slope.

Sequence of PI3K-delta (O00329 whole entry, looked up): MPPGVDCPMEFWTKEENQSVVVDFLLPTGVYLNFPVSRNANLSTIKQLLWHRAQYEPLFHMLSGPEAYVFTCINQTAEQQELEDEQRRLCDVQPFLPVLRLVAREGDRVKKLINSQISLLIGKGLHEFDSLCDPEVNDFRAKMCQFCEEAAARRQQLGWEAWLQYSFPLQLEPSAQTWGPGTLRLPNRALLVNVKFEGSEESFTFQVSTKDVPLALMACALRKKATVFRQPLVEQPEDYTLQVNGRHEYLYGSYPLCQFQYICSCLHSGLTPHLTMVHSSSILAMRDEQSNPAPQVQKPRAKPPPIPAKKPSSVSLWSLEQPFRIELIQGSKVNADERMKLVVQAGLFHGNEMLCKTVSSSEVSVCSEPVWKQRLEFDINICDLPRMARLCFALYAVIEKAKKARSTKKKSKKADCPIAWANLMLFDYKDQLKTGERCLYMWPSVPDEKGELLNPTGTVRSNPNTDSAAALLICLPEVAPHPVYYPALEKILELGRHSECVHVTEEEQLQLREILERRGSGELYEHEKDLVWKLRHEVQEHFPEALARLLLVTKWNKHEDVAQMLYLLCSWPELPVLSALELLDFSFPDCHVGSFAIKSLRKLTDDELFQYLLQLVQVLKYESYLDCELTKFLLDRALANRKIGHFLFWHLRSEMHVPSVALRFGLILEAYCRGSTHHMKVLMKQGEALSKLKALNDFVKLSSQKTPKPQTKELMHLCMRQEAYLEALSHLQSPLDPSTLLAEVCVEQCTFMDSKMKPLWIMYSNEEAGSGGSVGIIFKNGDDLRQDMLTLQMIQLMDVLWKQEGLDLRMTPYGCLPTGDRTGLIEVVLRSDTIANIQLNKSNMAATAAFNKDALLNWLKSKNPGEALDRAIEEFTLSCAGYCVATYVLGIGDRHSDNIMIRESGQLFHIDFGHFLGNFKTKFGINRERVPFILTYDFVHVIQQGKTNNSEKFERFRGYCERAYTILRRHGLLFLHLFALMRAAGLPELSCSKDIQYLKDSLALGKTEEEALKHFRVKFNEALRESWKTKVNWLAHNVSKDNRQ
Sequence of PI3K-delta (P27986 whole entry partner, looked up): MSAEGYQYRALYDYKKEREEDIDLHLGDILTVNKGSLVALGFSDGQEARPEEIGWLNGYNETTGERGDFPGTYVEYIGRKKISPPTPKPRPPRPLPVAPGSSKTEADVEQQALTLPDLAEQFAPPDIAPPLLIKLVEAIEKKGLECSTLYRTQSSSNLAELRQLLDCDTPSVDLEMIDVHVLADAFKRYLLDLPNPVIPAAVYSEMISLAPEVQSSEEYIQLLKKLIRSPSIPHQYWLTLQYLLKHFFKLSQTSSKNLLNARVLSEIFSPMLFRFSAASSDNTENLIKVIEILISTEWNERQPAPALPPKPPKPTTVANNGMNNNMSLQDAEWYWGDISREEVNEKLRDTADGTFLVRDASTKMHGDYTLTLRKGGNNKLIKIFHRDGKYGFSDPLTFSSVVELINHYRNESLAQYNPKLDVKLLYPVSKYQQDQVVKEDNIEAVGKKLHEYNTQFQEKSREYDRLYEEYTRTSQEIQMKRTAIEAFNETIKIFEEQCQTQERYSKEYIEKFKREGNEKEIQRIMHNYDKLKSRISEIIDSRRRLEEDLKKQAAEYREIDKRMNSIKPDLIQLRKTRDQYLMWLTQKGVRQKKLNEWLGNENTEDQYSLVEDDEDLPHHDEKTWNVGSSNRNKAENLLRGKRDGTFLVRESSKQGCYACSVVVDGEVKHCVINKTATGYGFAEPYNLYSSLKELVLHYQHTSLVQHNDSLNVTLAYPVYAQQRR
Sequence of PI3K-alpha (P42336 whole entry, looked up, canonical isoform): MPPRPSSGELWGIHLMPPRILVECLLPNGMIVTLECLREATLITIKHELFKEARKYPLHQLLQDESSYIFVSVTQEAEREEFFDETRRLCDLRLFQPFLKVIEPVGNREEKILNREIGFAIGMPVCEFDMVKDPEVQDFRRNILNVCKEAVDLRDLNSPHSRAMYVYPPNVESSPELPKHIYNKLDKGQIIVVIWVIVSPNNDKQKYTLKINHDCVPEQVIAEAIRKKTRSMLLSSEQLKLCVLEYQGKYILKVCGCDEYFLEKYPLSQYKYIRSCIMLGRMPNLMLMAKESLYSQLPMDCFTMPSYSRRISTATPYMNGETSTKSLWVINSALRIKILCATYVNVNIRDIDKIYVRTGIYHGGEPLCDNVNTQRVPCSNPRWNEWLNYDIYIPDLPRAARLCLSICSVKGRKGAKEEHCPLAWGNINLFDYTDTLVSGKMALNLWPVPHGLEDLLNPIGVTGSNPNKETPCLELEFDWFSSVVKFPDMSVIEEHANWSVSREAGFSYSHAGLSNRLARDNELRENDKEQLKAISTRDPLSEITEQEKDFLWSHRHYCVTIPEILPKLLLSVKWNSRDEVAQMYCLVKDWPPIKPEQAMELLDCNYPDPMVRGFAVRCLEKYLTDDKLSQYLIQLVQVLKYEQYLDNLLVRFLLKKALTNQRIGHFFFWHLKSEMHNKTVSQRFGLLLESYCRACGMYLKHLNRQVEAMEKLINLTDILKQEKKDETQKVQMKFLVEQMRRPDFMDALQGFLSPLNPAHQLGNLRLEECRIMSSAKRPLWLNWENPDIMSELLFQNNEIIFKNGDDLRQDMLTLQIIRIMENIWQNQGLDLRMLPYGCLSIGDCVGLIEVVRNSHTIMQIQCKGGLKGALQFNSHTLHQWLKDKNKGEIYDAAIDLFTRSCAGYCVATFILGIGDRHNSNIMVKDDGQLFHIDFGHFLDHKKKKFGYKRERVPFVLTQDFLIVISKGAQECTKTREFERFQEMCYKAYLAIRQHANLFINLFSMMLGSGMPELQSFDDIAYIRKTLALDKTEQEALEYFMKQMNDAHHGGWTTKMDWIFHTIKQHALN
Sequence of PI3K-alpha (P27986 whole entry partner, looked up, canonical isoform): as the sequence (P27986 whole entry partner, looked up) above

SMILES	Relative Selectivity versus PI3Kalpha (PI3K-alpha)	IC50 (PI3K-delta) [nM]
CCn1c(-c2cnc(C)nc2)nc2c(O[C@H]3CCN(C(=O)N4CCC4C)C3)ncnc21 (single isomer, unassigned) [Compound 5-15, 9-ethyl-6-({(3S)-1-[((2R or 2S)-methylazetidin-1-yl)carbonyl]pyrrolidin-3-yl}oxy)-8-(2-methylpyrimidin-5-yl)-9H-purine]	>10	6.2
CCn1c(-c2cnc(C)nc2)nc2c(O[C@H]3CCN(C(=O)N4CCC4C)C3)ncnc21 (single isomer, unassigned) [Compound 5-16, 9-ethyl-6-({(3S)-1-[((2R or 2S)-methylazetidin-1-yl)carbonyl]pyrrolidin-3-yl}oxy)-8-(2-methylpyrimidin-5-yl)-9H-purine]	>10	16
CCn1c(-c2cnc(C)nc2)nc2c(O[C@@H]3CN(C(=O)C4CC4)CC3(C)C)ncnc21 (racemic) [Compound 3-62, racemic-6-{[1-(cyclopropylcarbonyl)-4,4-dimethylpyrrolidin-3-yl]oxy}-9-ethyl-8-(2-methylpyrimidin-5-yl)-9H-purine]	>10	2.3
CCn1c(-c2cnc(C)nc2)nc2c(O[C@H]3CCN(C(=O)C4CC45CCCC5)C3)ncnc21 (single isomer, unassigned) [Compound 2-123, 9-ethyl-8-(2-methylpyrimidin-5-yl)-6-{[(3S)-1-((R or S)-spiro[2.4]hept-1-ylcarbonyl)pyrrolidin-3-yl]oxy}-9H-purine]	>10	< 1
CCn1c(-c2cnc(C)nc2)nc2c(O[C@H]3CCN(C(=O)C4CC45CCCC5)C3)ncnc21 (single isomer, unassigned) [Compound 2-122, 9-ethyl-8-(2-methylpyrimidin-5-yl)-6-{[(3S)-1-((R or S)-spiro[2.4]hept-1-ylcarbonyl)pyrrolidin-3-yl]oxy}-9H-purine]	>10	16
CCn1c(-c2cnc(C)nc2)nc2c(O[C@H]3CCN(C(=O)N4CCC(F)(F)C4)C3)ncnc21 [Compound 5-26, 6-({(3S)-1-[(3,3-difluoropyrrolidin-1-yl)carbonyl]pyrrolidin-3-yl}oxy)-9-ethyl-8-(2-methylpyrimidin-5-yl)-9H-purine]	>10	
CCn1c(-c2cnc(OC)nc2)nc2c(O[C@H]3CCN(C(=O)C4CC4)C3)ncnc21 [Compound 3-27, 6-{[(3S)-1-(cyclopropylcarbonyl)pyrrolidin-3-yl]oxy}-9-ethyl-8-(2-methoxypyrimidin-5-yl)-9H-purine]	>10	
CCn1c(-c2cnn(-c3ccccc3)c2C)nc2c(O[C@H]3CCN(C(=O)C4CC4)C3)ncnc21 [Compound 3-23, 6-{[(3S)-1-(cyclopropylcarbonyl)pyrrolidin-3-yl]oxy}-9-ethyl-8-(5-methyl-1-phenyl-1H-pyrazol-4-yl)-9H-purine]	>10	
CCn1c(-c2cnc(C)nc2)nc2c(O[C@H]3CCN(c4cncnc4)C3)ncnc21 [Compound 7-23, 9-ethyl-8-(2-methylpyrimidin-5-yl)-6-{[(3S)-1-pyrimidin-5-ylpyrrolidin-3-yl]oxy}-9H-purine]	>10	
CCn1c(-c2cnc(C)nc2)nc2c(O[C@H]3CCN(C(=O)C4CC4)C3)ncnc21 [Compound 2-107, 6-{[(3S)-1-(cyclopropylcarbonyl)pyrrolidin-3-yl]oxy}-9-ethyl-8-(2-methylpyrimidin-5-yl)-9H-purine]	>10	
Cc1cc2cccc(-c3nc4c(O[C@H]5CCN(C(=O)OC(C)(C)C)C5)ncnc4n3C)c2[nH]1 [Compound 1-21, tert-butyl (3S)-3-{[9-methyl-8-(2-methyl-1H-indol-7-yl)-9H-purin-6-yl]oxy}pyrrolidine-1-carboxylate]	>10	
CCC(=O)N1CC[C@H](Oc2ncnc3c2nc(-c2cnn4c2CCC4)n3C)C1 [Compound 3-22, 8-(5,6-dihydro-4H-pyrrolo[1,2-b]pyrazol-3-yl)-9-methyl-6-{[(3S)-1-propanoylpyrrolidin-3-yl]oxy}-9H-purine]	>10	
CCn1ncc(-c2nc3c(OC4CN(C(=O)OC(C)(C)C)C4)ncnc3n2C)c1C [Compound 1-40, tert-butyl 3-((8-(1-ethyl-5-methyl-1H-pyrazol-4-yl)-9-methyl-9H-purin-6-yl)oxy)azetidine-1-carboxylate]	>10	
CCOC(=O)N1CC[C@H](Oc2ncnc3c2nc(-c2cnn(CC)c2C)n3C)C1 [Compound 1-37, ethyl (3S)-3-{[8-(1-ethyl-5-methyl-1H-pyrazol-4-yl)-9-methyl-9H-purin-6-yl]oxy}pyrrolidine-1-carboxylate]	>10	
CCn1c(-c2cnc(C)nc2)nc2c(OC3CN(C(=O)C4CC4)CC3C(F)F)ncnc21 (single isomer, unassigned) [Compound 3-66, cyclopropyl([(3R,4S) or (3S,4R)]-3-(difluoromethyl)-4-((9-ethyl-8-(2-methylpyrimidin-5-yl)-9H-purin-6-yl)oxy)pyrrolidin-1-yl)methanone]	>10	
CCn1ncc(-c2nc3c(O[C@H]4CCN(C(=O)c5oncc5C)C4)ncnc3n2C)c1C [Compound 2-69, 8-(1-ethyl-5-methyl-1H-pyrazol-4-yl)-9-methyl-6-({(3S)-1-[(4-methylisoxazol-5-yl)carbonyl]pyrrolidin-3-yl}oxy)-9H-purine]	>10	
Cc1ncc(-c2nc3c(O[C@H]4CCN(C(=O)OC(C)(C)C)C4)ncnc3n2C)n1C [Compound 1-17, tert-butyl (3S)-3-{[8-(1,2-dimethyl-1H-imidazol-5-yl)-9-methyl-9H-purin-6-yl]oxy}pyrrolidine-1-carboxylate]	>10	
CCn1c(-c2cnc(C)nc2)nc2c(O[C@H]3CCN(C(=O)C4CC4(C)C)C3)ncnc21 (single isomer, unassigned) [Compound 2-126, 6-({(3S)-1-[S- or R-(2,2-dimethylcyclopropyl)carbonyl]pyrrolidin-3-yl}oxy)-9-ethyl-8-(2-methylpyrimidin-5-yl)-9H-purine]	>10	
CCn1c(N2CCC(c3ccccc3)CC2)nc2c(O[C@H]3CCN(C(=O)OC(C)(C)C)C3)ncnc21 [Compound 13-5, tert-butyl (3S)-3-{[9-ethyl-8-(4-phenylpiperidin-1-yl)-9H-purin-6-yl]oxy}pyrrolidine-1-carboxylate]	>10	
CCn1ncc(-c2nc3c(OC4CCN(C(=O)C5CCOCC5)CC4)ncnc3n2C)c1C [Compound 2-11, (4-((8-(1-ethyl-5-methyl-1H-pyrazol-4-yl)-9-methyl-9H-purin-6-yl)oxy)piperidin-1-yl)(tetrahydro-2H-pyran-4-yl)methanone]	2	
CCn1c(-c2cnc(C)nc2)nc2c(O[C@H]3CCN(C(=O)N4CCC4)C3)ncnc21 [Compound 5-11, 6-{[(3S)-1-(azetidin-1-ylcarbonyl)pyrrolidin-3-yl]oxy}-9-ethyl-8-(2-methylpyrimidin-5-yl)-9H-purine]	>10	
CCn1c(-c2cnc(OC)c(F)c2)nc2c(O[C@H]3CCN(C(=O)C(C)C)C3)ncnc21 [Compound 3-54, 9-ethyl-8-(5-fluoro-6-methoxypyridin-3-yl)-6-{[(3S)-1-(2-methylpropanoyl)pyrrolidin-3-yl]oxy}-9H-purine]	>10	
